Source: patent US4973591A, “Parenteral formulations of 1-diphenylmethyl-4-((2-(4-methylphenyl)-5-methyl-1H-imidazol-4-yl)methyl )piperazine” (Syntex Pharmaceuticals, Ltd., priority 1988, dated 1990)
Counter-ions that a name gives are not always drawn.

What was measured:
pH of salt solutions = assay type: physicochemical
calcium channel = settings: statement in background; cited from earlier work
[1] = solubility of active agent, its salts and cosolvent solutions; settings: for solubility (in words): salts of the active agent
rat tail vein = rat tail vein injection (irritation / in vivo acceptability)
Protocol: In vivo acceptability is tested by injecting a small amount of the formulation into the tail vein of a rat or other suitable species, for example, as described by Waynforth, Experimental and Surgical Technique in the Rat, Chapter 2, pages 42-45 (Academic Press, 1980).
This procedure is a modification of a procedure described by Waynforth in Experimental and Surgical Technique in the Rat, Chapter 2, pages 42-45 (Academic Press, 1980). The rat tail vein is dilated by warming, and a test formulation administered by injection, using a 25G needle, with the rat held in a restrainer, and a heat source close enough to keep the tail warm during injection. The tail is observed for signs of irritation, which are outwardly apparent and can be detected by the presence of bruising, swelling, lack of flexibility, lumps, or by observation of distress in the animal upon subsequent administration.

[2] = precipitation on dropping the injectable formulation into pH 7.4 phosphate buffer; assay type: physicochemical; settings: approx. 1 ml injectable formulation into 50 ml 0.1M pH 7.4 phosphate buffer
[3] = stability testing of formulations at 25° C. (content, pH, appearance); assay type: physicochemical
Protocol: Stability testing of the formulations is done, for example, as described in Remington's Pharmaceutical Sciences. […] A formulation is prepared and placed in suitable container, storing it at 25° C., and periodically observing the appearance of the samples and removing aliquots to be tested for concentration and pH.
At periodic intervals, the appearance of the samples was noted, and aliquots were withdrawn and assayed for active agent concentration and pH.

[4] = compatibility with infusion fluids; assay type: physicochemical; settings: wide range of commercially available infusion fluids
Protocol: Compatibility with infusion fluids is determined by adding a formulation of the invention to an infusion fluid and inspecting the resulting mixture for formation of any precipitate, discoloration, or the appearance of other physical changes, monitoring the solution active ingredient concentration to ensure no loss in potency, which could lead to decreases in efficacy.

[5] = in vivo; cited from earlier work

With `Cc1ccc(-c2nc(CN3CCN(C(c4ccccc4)c4ccccc4)CC3)c(C)[nH]2)cc1` the “pH relative to optimum range for physiological compatibility” value (pH of salt solutions; when prepared at the desired concentrations) was “outside the optimum pH range for physiological compatibility”.

In the case of `Cc1ccc(-c2nc(CN3CCN(C(c4ccccc4)c4ccccc4)CC3)c(C)[nH]2)cc1` [1-Diphenylmethyl-4-[(2-(4-methylphenyl)-5-methyl-1H-imidazol-4-yl)methyl]piperazine], the calcium channel antagonist (calcium channel) is listed as “potent calcium channel antagonist” and the solubility problems ([1]; particularly at physiological pH, in formulation process and upon administration to test animals) is listed as “significant solubility problems”.

In the case of `Cc1ccc(-c2nc(CN3CCN(C(c4ccccc4)c4ccccc4)CC3)c(C)[nH]2)cc1.Cl.Cl.Cl` [1-diphenylmethyl-4-[(2-(4-methylphenyl)-5-methyl-1H-imidazol-4-yl)methyl]piperazine, trihydrochloride], the “signs of pain / irritation upon injection” value (rat tail vein; 8 mg/ml solution, pH about 3-3.5, rat tail vein) is reported as “bruising of the vein, hardening of the tail and other signs of pain upon injection”, the “compound precipitation in rat tail veins” value (rat tail vein; 8 mg/ml solution, pH about 3-3.5 adjusted with sodium hydroxide, shortly after injection) is reported as “compound precipitation was observed in rat tail veins shortly after injection” and the precipitate at interface [2] is reported as “a white precipitate was observed immediately at the interface between the two liquids”.

With `Cc1ccc(-c2nc(CN3CCN(C(c4ccccc4)c4ccccc4)CC3)c(C)[nH]2)cc1` [ascorbic acid salt] the “discolouration of solutions upon standing” value ([3]; solutions of ascorbic acid salt, on standing) was “rapid discolouration upon standing” and the “solubility (in words)” value [1] was “relatively insoluble”.

For `Cc1ccc(-c2nc(C)c(CN3CCN(C(c4ccccc4)c4ccccc4)CC3)[nH]2)cc1` [aspartic], the “changes in properties of salts” value ([1]; salts investigated for adequate solubility at physiologically acceptable pH and reduced irritancy) was “only moderate changes in properties”.

In the case of `Cc1ccc(-c2nc(C)c(CN3CCN(C(c4ccccc4)c4ccccc4)CC3)[nH]2)cc1` [malonic], the “solubility (in words)” value [1] is reported as “did not have adequate solubility”.

In the case of `Cc1ccc(-c2nc(C)c(CN3CCN(C(c4ccccc4)c4ccccc4)CC3)[nH]2)cc1` [oxalic], the “solubility (in words)” value [1] is reported as “did not have adequate solubility”.

For `Cc1ccc(-c2nc(CN3CCN(C(c4ccccc4)c4ccccc4)CC3)c(C)[nH]2)cc1` [sulfuric acid salt], the pH in solution (pH of salt solutions) was 1.76.

In the case of `Cc1ccc(-c2nc(CN3CCN(C(c4ccccc4)c4ccccc4)CC3)c(C)[nH]2)cc1.O=C(O)C(O)C(O)C(=O)O` [tartrate salt, 1-diphenylmethyl-4-[(2-(4-methylphenyl)-5-methyl-1H -imidazol-4-yl)methyl]piperazine tartrate], the irritancy levels (rat tail vein; one week tail vein injection trial) is reported as “Acceptable irritancy levels”, the pH in solution (pH of salt solutions) is reported as “greater than 3.0” and the “physical and chemical stability of the solution” value ([3]; storage at 25° C.) is reported as “at least 12 months”. For the same molecule, the “compatibility with infusion fluids” value [4] was “compatible with a wide range of commercially available infusion fluids”, the “administration over 28 days” value (rats) was “successful administration” and the “administration over 28 days” value (baboons) was “successful administration”. For the same molecule, the solubility (physchem) was greater than 4000 µg/mL.

For `Clc1ccccc1CN1CCc2sccc2C1` [ticlopidine], the “reduction of the risk of a second ischemic event” value [5] is listed as “demonstrated to reduce the risk of a second ischemic event”.
